# Key:
# Assay in all cases: radiometric filter-binding kinase assay
# [1] = target: ABL1 (human) (UniProt P00519)
# [2] = target: CDK9 CCNT1 (human) (UniProt P50750+O60563)
# [3] = target: CSNK1G2 (human) (UniProt P78368)
# [4] = target: DDR2 (human) (UniProt Q16832)
# [5] = target: EIF2AK3 (human) (UniProt Q9NZJ5)
# [6] = target: IRAK1 (human) (UniProt P51617)
# [7] = target: MAP4K3 (human) (UniProt Q8IVH8)
# [8] = target: MAP4K5 (human) (UniProt Q9Y4K4)
# [9] = target: MAPK7 (human) (UniProt Q13164)
# [10] = target: MAPKAPK3 (human) (UniProt Q16644)
# [11] = system: OXSR1 (human), O95747 [T185E]
# [12] = target: PDGFRA (human) (UniProt P16234)
# [13] = system: PRKAA1 or PRKAA2 (rat); conditions: accession and sequence are those of the human protein
# [14] = target: PRKAA1 PRKAB2 PRKAG1 (human) (UniProt O43741+Q13131+P54619)
# [15] = target: PRKCG (human) (UniProt P05129)
# [16] = target: PTK6 (human) (UniProt Q13882)
# [17] = target: SIK2 (human) (UniProt Q9H0K1)
# [18] = target: SIK3 (human) (UniProt Q9Y2K2)
# [19] = target: STK16 (human) (UniProt O75716)
# [20] = target: STK24 (human) (UniProt Q9Y6E0)
# [21] = target: STK33 (human) (UniProt Q9BYT3)
# [22] = target: TEK (human) (UniProt Q02763)
# [23] = target: TESK1 (human) (UniProt Q15569)
# [24] = system: TGFBR1 (human), P36897 [T204D]
# [25] = target: TLK1 (human) (UniProt Q9UKI8)
# [26] = target: TSSK1B (human) (UniProt Q9BXA7)
# [27] = target: TTBK1 (human) (UniProt Q5TCY1)
# [28] = target: TTBK2 (human) (UniProt Q6IQ55)
# [29] = target: ULK1 (human) (UniProt O75385)
# [30] = target: ULK2 (human) (UniProt Q8IYT8)
# [31] = target: WNK1 (human) (UniProt Q9H4A3)
# [32] = target: ZAP70 (human) (UniProt P43403)
# Sequence of ZAP70 (human) (P43403 whole entry, looked up): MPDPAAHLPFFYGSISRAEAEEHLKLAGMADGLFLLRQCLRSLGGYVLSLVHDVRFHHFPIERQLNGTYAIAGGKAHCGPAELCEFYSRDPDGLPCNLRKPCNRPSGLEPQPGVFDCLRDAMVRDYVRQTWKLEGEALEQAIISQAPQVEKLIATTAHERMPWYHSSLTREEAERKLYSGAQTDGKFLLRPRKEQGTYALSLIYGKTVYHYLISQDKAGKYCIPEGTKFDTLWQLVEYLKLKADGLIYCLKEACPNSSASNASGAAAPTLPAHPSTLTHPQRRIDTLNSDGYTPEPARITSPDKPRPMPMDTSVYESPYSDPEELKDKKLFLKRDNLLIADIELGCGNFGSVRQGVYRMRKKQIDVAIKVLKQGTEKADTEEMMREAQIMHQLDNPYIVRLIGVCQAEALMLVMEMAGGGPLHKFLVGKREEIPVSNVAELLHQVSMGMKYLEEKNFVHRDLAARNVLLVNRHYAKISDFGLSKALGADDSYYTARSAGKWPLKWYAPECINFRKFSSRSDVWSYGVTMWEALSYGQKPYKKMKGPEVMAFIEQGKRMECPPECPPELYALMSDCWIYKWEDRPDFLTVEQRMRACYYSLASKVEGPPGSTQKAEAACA
# Sequence of ABL1 (human) (P00519 whole entry, looked up): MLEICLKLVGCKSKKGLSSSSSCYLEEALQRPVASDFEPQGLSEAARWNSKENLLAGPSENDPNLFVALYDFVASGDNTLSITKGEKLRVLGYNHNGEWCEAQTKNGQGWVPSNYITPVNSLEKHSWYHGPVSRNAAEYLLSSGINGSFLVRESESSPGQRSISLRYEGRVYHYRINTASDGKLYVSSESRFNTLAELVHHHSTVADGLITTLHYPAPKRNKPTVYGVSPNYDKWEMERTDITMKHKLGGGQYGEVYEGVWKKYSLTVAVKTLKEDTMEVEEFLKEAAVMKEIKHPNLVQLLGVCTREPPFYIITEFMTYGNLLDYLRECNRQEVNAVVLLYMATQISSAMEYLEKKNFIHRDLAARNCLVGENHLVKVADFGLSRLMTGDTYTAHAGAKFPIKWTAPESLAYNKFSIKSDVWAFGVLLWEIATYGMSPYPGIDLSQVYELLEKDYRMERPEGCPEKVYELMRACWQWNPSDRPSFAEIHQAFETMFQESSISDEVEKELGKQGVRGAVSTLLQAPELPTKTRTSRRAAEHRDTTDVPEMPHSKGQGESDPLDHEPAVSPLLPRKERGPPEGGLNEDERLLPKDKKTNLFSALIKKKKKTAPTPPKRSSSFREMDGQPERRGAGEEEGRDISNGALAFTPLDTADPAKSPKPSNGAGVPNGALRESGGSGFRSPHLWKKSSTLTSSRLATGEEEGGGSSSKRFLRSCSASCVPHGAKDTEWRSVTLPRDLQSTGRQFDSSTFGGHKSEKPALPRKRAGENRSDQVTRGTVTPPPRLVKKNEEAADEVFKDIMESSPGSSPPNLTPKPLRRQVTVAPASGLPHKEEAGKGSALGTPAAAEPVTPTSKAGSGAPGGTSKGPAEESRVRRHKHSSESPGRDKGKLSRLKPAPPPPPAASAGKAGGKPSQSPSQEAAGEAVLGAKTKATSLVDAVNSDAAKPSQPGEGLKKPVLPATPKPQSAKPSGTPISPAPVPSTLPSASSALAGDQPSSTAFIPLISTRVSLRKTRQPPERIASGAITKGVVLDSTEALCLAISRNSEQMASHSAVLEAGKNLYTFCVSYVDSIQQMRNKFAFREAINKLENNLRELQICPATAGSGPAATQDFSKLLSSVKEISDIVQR
# Sequence of MAPK7 (human) (Q13164 whole entry, looked up): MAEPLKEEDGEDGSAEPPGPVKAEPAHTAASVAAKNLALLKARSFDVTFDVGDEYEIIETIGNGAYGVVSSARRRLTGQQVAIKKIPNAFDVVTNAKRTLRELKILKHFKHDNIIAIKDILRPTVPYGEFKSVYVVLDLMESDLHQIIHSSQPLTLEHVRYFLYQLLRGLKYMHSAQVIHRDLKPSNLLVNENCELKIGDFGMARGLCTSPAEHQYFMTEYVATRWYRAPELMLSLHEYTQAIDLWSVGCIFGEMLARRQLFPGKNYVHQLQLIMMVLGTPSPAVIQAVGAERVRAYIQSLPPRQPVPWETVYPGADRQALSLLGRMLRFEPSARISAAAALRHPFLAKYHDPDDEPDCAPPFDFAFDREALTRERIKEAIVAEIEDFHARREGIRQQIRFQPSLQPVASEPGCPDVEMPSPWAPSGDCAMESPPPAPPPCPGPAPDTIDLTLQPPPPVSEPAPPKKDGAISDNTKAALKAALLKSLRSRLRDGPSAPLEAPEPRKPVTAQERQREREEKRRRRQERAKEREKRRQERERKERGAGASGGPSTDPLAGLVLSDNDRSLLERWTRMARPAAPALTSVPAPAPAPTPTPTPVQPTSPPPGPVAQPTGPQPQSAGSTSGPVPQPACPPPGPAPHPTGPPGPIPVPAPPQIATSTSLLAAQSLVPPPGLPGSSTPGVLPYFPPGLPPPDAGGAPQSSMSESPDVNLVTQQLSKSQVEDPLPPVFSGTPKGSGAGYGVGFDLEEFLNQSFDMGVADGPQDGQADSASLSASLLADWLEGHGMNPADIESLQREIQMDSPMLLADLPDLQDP
# Sequence of SIK3 (human) (Q9Y2K2 whole entry, looked up): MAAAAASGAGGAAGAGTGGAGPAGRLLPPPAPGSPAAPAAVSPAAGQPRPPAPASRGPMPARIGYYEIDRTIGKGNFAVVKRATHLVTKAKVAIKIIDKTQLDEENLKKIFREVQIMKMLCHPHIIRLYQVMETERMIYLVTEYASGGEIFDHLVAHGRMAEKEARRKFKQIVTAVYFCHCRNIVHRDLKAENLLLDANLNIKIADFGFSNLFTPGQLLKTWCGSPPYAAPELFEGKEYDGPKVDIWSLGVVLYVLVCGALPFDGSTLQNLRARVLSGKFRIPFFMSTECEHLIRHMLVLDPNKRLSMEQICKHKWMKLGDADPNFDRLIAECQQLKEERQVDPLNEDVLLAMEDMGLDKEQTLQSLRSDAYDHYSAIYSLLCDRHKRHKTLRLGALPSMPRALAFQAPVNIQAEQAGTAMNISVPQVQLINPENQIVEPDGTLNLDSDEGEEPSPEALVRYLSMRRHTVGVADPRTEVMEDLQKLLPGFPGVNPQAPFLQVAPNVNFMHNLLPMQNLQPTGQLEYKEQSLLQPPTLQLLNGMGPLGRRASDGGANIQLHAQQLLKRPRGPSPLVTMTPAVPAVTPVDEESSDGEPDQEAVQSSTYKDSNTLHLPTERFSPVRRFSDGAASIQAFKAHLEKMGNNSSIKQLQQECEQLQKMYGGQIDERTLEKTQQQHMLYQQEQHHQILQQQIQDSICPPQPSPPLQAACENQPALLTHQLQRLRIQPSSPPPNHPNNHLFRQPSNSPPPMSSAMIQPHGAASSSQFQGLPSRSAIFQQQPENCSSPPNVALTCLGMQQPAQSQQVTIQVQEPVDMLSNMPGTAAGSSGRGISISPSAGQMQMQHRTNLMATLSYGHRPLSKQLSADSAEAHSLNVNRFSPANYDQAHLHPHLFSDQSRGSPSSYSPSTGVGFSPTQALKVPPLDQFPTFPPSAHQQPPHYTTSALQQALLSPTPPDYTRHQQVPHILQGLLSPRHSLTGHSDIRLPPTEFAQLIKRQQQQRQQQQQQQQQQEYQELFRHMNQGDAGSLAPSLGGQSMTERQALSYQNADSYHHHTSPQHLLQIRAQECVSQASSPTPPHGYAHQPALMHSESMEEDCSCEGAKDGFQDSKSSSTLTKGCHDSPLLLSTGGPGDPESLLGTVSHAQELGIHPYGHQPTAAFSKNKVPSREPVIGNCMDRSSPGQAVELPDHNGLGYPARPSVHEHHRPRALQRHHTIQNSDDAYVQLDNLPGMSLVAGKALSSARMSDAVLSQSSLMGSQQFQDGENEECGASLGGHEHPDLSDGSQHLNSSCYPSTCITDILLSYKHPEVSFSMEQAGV
# Sequence of EIF2AK3 (human) (Q9NZJ5 whole entry, looked up): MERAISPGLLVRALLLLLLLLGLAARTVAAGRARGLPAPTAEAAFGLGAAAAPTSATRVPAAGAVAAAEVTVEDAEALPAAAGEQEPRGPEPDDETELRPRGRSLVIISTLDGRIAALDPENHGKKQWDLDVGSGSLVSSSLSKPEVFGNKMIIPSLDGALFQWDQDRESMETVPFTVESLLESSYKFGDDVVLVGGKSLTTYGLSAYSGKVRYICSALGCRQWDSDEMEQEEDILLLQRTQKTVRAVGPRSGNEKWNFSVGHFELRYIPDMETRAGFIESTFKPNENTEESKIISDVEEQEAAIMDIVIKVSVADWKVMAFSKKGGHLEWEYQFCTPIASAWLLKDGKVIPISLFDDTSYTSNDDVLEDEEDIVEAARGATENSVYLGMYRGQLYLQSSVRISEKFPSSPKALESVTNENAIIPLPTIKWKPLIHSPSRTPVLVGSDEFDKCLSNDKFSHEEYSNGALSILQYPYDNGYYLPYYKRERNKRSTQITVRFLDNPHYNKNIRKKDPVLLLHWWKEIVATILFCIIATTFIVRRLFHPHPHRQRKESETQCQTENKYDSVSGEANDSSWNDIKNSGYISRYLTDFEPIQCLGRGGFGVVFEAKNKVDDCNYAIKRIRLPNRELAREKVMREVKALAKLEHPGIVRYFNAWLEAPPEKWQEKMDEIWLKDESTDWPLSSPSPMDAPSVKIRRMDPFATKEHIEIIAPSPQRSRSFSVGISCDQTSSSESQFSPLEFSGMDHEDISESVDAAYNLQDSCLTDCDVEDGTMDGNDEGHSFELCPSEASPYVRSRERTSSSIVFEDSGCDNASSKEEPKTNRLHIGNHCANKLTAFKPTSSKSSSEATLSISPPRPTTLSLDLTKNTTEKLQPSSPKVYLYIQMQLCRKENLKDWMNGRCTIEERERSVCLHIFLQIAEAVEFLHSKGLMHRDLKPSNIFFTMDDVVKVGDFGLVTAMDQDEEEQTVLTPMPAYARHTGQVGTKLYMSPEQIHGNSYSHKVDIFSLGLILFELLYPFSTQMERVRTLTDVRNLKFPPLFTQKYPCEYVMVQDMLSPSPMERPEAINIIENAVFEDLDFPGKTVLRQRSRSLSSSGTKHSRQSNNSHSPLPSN
compound,measurement,setting,value
CNC(=O)C1[C@H]2O[C@@](C)([C@@H]1N)n1c3ccccc3c3c4c(c5c6ccccc6n2c5c31)C(=O)NC4 (some centres undefined),residual activity,[1]; compound 0.01 µM,98%
same,residual activity,[1]; compound 0.1 µM,82%
same,residual activity,[1]; compound 1.0 µM,37%
same,residual activity,[2]; compound 0.01 µM,61%
same,residual activity,[2]; compound 0.1 µM,17%
same,residual activity,[2]; compound 1.0 µM,15%
same,residual activity,[3]; compound 0.01 µM,106%
same,residual activity,[3]; compound 0.1 µM,97%
same,residual activity,[3]; compound 1.0 µM,86%
same,residual activity,[4]; compound 0.1 µM,8%
same,residual activity,[4]; compound 1.0 µM,3%
same,residual activity,[5]; compound 0.01 µM,62%
same,residual activity,[5]; compound 0.1 µM,59%
same,residual activity,[5]; compound 1.0 µM,36%
same,residual activity,[6]; compound 0.01 µM,15%
same,residual activity,[6]; compound 0.1 µM,2%
same,residual activity,[6]; compound 1.0 µM,3%
same,residual activity,[7]; compound 0.01 µM,3%
same,residual activity,[7]; compound 0.1 µM,2%
same,residual activity,[7]; compound 1.0 µM,1%
same,residual activity,[8]; compound 0.01 µM,10%
same,residual activity,[8]; compound 0.1 µM,7%
same,residual activity,[8]; compound 1.0 µM,4%
same,residual activity,[9]; compound 0.01 µM,66%
same,residual activity,[9]; compound 0.1 µM,24%
same,residual activity,[9]; compound 1.0 µM,12%
same,residual activity,[10]; compound 0.01 µM,91%
same,residual activity,[10]; compound 0.1 µM,74%
same,residual activity,[10]; compound 1.0 µM,29%
same,residual activity,[11]; compound 0.01 µM,75%
same,residual activity,[11]; compound 0.1 µM,23%
same,residual activity,[11]; compound 1.0 µM,7%
same,residual activity,[12]; compound 0.01 µM,54%
same,residual activity,[12]; compound 0.1 µM,8%
same,residual activity,[12]; compound 1.0 µM,2%
same,residual activity,[13]; compound 0.01 µM,6%
same,residual activity,[13]; compound 0.1 µM,2%
same,residual activity,[13]; compound 1.0 µM,1%
same,residual activity,[14]; compound 0.01 µM,4%
same,residual activity,[14]; compound 0.1 µM,3%
same,residual activity,[14]; compound 1.0 µM,1%
same,residual activity,[15]; compound 0.01 µM,95%
same,residual activity,[15]; compound 0.1 µM,51%
same,residual activity,[15]; compound 1.0 µM,13%
same,residual activity,[16]; compound 0.01 µM,28%
same,residual activity,[16]; compound 0.1 µM,16%
same,residual activity,[16]; compound 1.0 µM,4%
same,residual activity,[17]; compound 0.01 µM,4%
same,residual activity,[17]; compound 0.1 µM,0%
same,residual activity,[17]; compound 1.0 µM,1%
same,residual activity,[18]; compound 0.01 µM,31%
same,residual activity,[18]; compound 0.1 µM,7%
same,residual activity,[18]; compound 1.0 µM,2%
same,residual activity,[19]; compound 0.01 µM,102%
same,residual activity,[19]; compound 0.1 µM,85%
same,residual activity,[19]; compound 1.0 µM,69%
same,residual activity,[20]; compound 0.01 µM,97%
same,residual activity,[20]; compound 0.1 µM,50%
same,residual activity,[20]; compound 1.0 µM,6%
same,residual activity,[21]; compound 0.01 µM,44%
same,residual activity,[21]; compound 0.1 µM,27%
same,residual activity,[21]; compound 1.0 µM,23%
same,residual activity,[22]; compound 0.01 µM,59%
same,residual activity,[22]; compound 0.1 µM,41%
same,residual activity,[22]; compound 1.0 µM,20%
same,residual activity,[23]; compound 0.01 µM,76%
same,residual activity,[23]; compound 0.1 µM,19%
same,residual activity,[23]; compound 1.0 µM,2%
same,residual activity,[24]; compound 0.01 µM,96%
same,residual activity,[24]; compound 0.1 µM,74%
same,residual activity,[24]; compound 1.0 µM,17%
same,residual activity,[25]; compound 0.01 µM,93%
same,residual activity,[25]; compound 0.1 µM,39%
same,residual activity,[25]; compound 1.0 µM,6%
same,residual activity,[26]; compound 0.01 µM,13%
same,residual activity,[26]; compound 0.1 µM,5%
same,residual activity,[26]; compound 1.0 µM,4%
same,residual activity,[27]; compound 0.01 µM,101%
same,residual activity,[27]; compound 0.1 µM,108%
same,residual activity,[27]; compound 1.0 µM,99%
same,residual activity,[28]; compound 0.01 µM,107%
same,residual activity,[28]; compound 0.1 µM,102%
same,residual activity,[28]; compound 1.0 µM,90%
same,residual activity,[29]; compound 0.01 µM,102%
same,residual activity,[29]; compound 0.1 µM,43%
same,residual activity,[29]; compound 1.0 µM,11%
same,residual activity,[30]; compound 0.01 µM,30%
same,residual activity,[30]; compound 0.1 µM,5%
same,residual activity,[30]; compound 1.0 µM,1%
same,residual activity,[31]; compound 0.1 µM,91%
same,residual activity,[31]; compound 1.0 µM,86%
same,residual activity,[32]; compound 0.01 µM,83%
same,residual activity,[32]; compound 0.1 µM,16%
same,residual activity,[32]; compound 1.0 µM,2%

# — the kinase profiling compilation of Christmann-Franck et al. (2016)
